# Measurements as given in patent US11077090B2, “Compounds and compositions and uses thereof” (Sunovion Pharmaceuticals Inc., priority 2016, dated 2021).
# Tested on: compound-treated mice
# Test: Neuropharmacological assay (SmartCube): behavioral activity signature and minimal effective dose
# Assay type: in vivo
# Conditions: Mus musculus, ip, MED = dose having 50% or more total activity, read-out: Potency: minimal effective dose (MED)
# In short: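 Video-recorded behavior is compared algorithmically against a reference-compound database, yielding class probabilities (best dose reported). Compounds given i.p. in NMP/PEG/propylene glycol 15 min pre-test at 3 doses; potency as MED, the dose (mpk, range usually 0.3–30) reaching ≥50% total activity.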
row,SMILES,minimal effective dose [mg/kg]
1,Cc1cccc2c1CO[C@@H](C)[C@H]2N.Cl [Example 97],3 to 10
2,Cc1cccc2c1CO[C@H](C)[C@H]2N.Cl [Example 98],3 to 10
3,"CC1(C)OCc2ccccc2C1N.Cl (stereo not drawn) [Example 101, 3,3-Dimethylisochroman-4-amine hydrochloride]",10 to 30
4,Cc1ccc2c(c1)[C@H](N)CO[C@@H]2C.Cl [Example 106],3 to 10
5,Cc1ccc2c(c1)[C@H](N)CO[C@H]2C.Cl [Example 107],3 to 10
6,N[C@@H]1COCc2cccc(Cl)c21 [Example 127],< 3
7,N[C@H]1COCc2cccc(Cl)c21 [Example 128],< 3
8,N[C@@H]1COCc2c(Cl)cccc21 [Example 131],< 3
9,N[C@H]1COCc2c(Cl)cccc21 [Example 132],< 3

# Same assay, conditions: i.p. 15 min before test, most efficacious dose(s)
SMILES,AD: ADHD (probability of activity signature),AG: analgesic (probability of activity signature),AX: anxiolytic (probability of activity signature),CE: cognitive enhancer (probability of activity signature),DP: anti-depressant (probability of activity signature),MS: mood stabilizer (probability of activity signature),PS: anti-psychotic (probability of activity signature),SD: sedative hypnotic (probability of activity signature),UN: uncharacterized CNS activity (probability of activity signature)
Cc1cccc2c1CO[C@@H](C)[C@H]2N.Cl [Example 97],+ (LOQ ≤ + <5%),+ (LOQ ≤ + <5%),++ (5% ≤ ++ <25%),++ (5% ≤ ++ <25%),+ (LOQ ≤ + <5%),+ (LOQ ≤ + <5%),++ (5% ≤ ++ <25%),++ (5% ≤ ++ <25%),++++ (50% ≤ ++++)
Cc1cccc2c1CO[C@H](C)[C@H]2N.Cl [Example 98],+ (LOQ ≤ + <5%),++ (5% ≤ ++ <25%),++ (5% ≤ ++ <25%),++ (5% ≤ ++ <25%),++ (5% ≤ ++ <25%),+ (LOQ ≤ + <5%),++ (5% ≤ ++ <25%),++ (5% ≤ ++ <25%),++++ (50% ≤ ++++)
"CC1(C)OCc2ccccc2C1N.Cl (stereo not drawn) [Example 101, 3,3-Dimethylisochroman-4-amine hydrochloride]",+ (LOQ ≤ + <5%),++ (5% ≤ ++ <25%),+++ (25% ≤ +++ <50%),+ (LOQ ≤ + <5%),++ (5% ≤ ++ <25%),+ (LOQ ≤ + <5%),++ (5% ≤ ++ <25%),++ (5% ≤ ++ <25%),+ (LOQ ≤ + <5%)
Cc1ccc2c(c1)[C@H](N)CO[C@@H]2C.Cl [Example 106],+ (LOQ ≤ + <5%),+ (LOQ ≤ + <5%),++ (5% ≤ ++ <25%),++ (5% ≤ ++ <25%),+ (LOQ ≤ + <5%),+ (LOQ ≤ + <5%),++ (5% ≤ ++ <25%),++ (5% ≤ ++ <25%),++++ (50% ≤ ++++)
Cc1ccc2c(c1)[C@H](N)CO[C@H]2C.Cl [Example 107],+ (LOQ ≤ + <5%),++ (5% ≤ ++ <25%),++ (5% ≤ ++ <25%),++ (5% ≤ ++ <25%),+ (LOQ ≤ + <5%),+ (LOQ ≤ + <5%),++ (5% ≤ ++ <25%),+ (LOQ ≤ + <5%),+++ (25% ≤ +++ <50%)
N[C@@H]1COCc2cccc(Cl)c21 [Example 127],+ (LOQ ≤ + <5%),++ (5% ≤ ++ <25%),++ (5% ≤ ++ <25%),++ (5% ≤ ++ <25%),++ (5% ≤ ++ <25%),+ (LOQ ≤ + <5%),++ (5% ≤ ++ <25%),+ (LOQ ≤ + <5%),+++ (25% ≤ +++ <50%)
N[C@H]1COCc2cccc(Cl)c21 [Example 128],+ (LOQ ≤ + <5%),++ (5% ≤ ++ <25%),++ (5% ≤ ++ <25%),+++ (25% ≤ +++ <50%),++ (5% ≤ ++ <25%),+ (LOQ ≤ + <5%),++ (5% ≤ ++ <25%),+ (LOQ ≤ + <5%),+++ (25% ≤ +++ <50%)
N[C@@H]1COCc2c(Cl)cccc21 [Example 131],+ (LOQ ≤ + <5%),+ (LOQ ≤ + <5%),++ (5% ≤ ++ <25%),+++ (25% ≤ +++ <50%),++ (5% ≤ ++ <25%),++ (5% ≤ ++ <25%),++ (5% ≤ ++ <25%),++ (5% ≤ ++ <25%),+++ (25% ≤ +++ <50%)
N[C@H]1COCc2c(Cl)cccc21 [Example 132],+ (LOQ ≤ + <5%),++ (5% ≤ ++ <25%),+++ (25% ≤ +++ <50%),+++ (25% ≤ +++ <50%),++ (5% ≤ ++ <25%),+ (LOQ ≤ + <5%),++ (5% ≤ ++ <25%),++ (5% ≤ ++ <25%),+++ (25% ≤ +++ <50%)
